Source: PMC2941991 (ACS chemical biology, 2009)

Biological target: T1, T877A full-length androgen receptor mutant (Homo sapiens, UniProt P10275, T878A)
T1 sequence (P10275 1-920 T878A): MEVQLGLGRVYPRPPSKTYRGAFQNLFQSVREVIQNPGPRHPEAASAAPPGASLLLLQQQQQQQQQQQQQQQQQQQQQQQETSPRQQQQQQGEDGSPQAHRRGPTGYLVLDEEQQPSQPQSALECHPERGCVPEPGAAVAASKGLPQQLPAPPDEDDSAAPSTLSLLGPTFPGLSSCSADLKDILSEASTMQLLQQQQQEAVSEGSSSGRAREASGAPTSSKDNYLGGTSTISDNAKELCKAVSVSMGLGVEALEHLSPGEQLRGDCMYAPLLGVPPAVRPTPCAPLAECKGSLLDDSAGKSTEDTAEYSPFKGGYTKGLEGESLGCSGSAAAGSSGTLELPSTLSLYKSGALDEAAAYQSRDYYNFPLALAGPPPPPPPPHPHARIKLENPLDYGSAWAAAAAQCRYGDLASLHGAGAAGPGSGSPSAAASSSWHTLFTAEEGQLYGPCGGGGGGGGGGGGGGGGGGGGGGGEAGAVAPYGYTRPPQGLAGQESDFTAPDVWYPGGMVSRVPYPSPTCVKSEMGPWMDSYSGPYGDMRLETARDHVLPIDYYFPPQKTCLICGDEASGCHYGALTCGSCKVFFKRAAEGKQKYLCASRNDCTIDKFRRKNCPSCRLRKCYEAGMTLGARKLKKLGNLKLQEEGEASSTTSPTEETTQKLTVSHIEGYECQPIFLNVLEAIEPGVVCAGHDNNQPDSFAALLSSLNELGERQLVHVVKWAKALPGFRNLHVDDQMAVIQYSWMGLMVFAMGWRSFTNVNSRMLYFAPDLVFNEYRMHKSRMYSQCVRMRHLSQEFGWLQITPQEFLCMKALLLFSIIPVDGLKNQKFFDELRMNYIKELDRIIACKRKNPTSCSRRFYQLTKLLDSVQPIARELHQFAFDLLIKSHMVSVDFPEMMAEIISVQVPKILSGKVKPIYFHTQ
Experiment: Luciferase reporter gene assay, full-length AR with the LNCaP mutation
Format: cell-based

## CC(C)(O)C(=O)Nc1ccc([N+](=O)[O-])c(C(F)(F)F)c1 [OH-Flu, 2-hydroxyflutamide]
  Agonist or antagonist action on the AR T877A mutant: act as agonists
